What is called Ki is a measure of affinity in units of concentration, obtained from inhibition or displacement.

The target of the assay is T1, human factor Xa (Homo sapiens, UniProt P00742).
T1 construct: human factor Xa; purchased Enzyme Research Laboratories, Inc; South Bend, Ind
T1 sequence (P00742 235-488 limits assumed): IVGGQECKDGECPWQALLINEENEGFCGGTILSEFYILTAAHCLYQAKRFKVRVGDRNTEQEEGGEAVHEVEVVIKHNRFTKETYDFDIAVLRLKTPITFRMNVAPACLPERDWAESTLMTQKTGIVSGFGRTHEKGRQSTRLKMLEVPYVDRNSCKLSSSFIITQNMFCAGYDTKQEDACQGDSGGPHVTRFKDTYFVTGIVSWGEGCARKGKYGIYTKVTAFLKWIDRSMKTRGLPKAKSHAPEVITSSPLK
T1 sequence (P00742 41-179 partner limits assumed): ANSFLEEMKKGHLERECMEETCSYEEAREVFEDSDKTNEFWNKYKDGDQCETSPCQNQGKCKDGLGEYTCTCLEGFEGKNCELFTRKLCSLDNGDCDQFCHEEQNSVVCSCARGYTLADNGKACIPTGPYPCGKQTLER
In words: Factor Xa assay (chromogenic, inhibition of factor Xa activity). The class given is biochemical. Conditions: purified human factor Xa 0.5 nM, chromogenic substrate S-2765 140 μM, 25° C., pH 7.8; Ki calculated from IC50 corrected for substrate competition; read-out: Ki (inhibition constant) for the inhibition of factor Xa. The method, then:
Purified enzymes were used in chromogenic assays.
The assay was performed by pre-incubating the compound of formula I plus enzyme for 10 min. Then the assay was initiated by adding substrate to obtain a final volume of 100 μl. The initial velocity of chromogenic substrate hydrolysis was measured by the change in absorbance at 405 nm using a Bio-tek Instruments kinetic plate reader (Ceres UV900HDi) at 25° C. during the linear portion of the time course (usually 1.5 min after addition of substrate).
In the case of `CC(C)N1CCC(NC(=O)c2cc3cc(C(=O)N4CC(O)C4)ccc3n2Cc2cc(-c3ccc(Cl)s3)on2)CC1` [Example 1, 1-[5-(5-Chloro-thiophen-2-yl)-isoxazol-3-ylmethyl]-5-(3-hydroxy-azetidine-1-carbonyl)-1H-indole-2-carboxylic acid (1-isopropyl-piperidin-4-yl)-amide], the Ki was 57 nM.

For the molecule `CC(C)N1CCC(NC(=O)c2cc3cc(C(=O)N4CCCC4CO)ccc3n2Cc2cc(-c3ccc(Cl)s3)on2)CC1` (stereo not drawn) [Example 2, 1-[5-(5-Chloro-thiophen-2-yl)-isoxazol-3-ylmethyl]-5-(2-hydroxymethyl-pyrrolidine-1-carbonyl)-1H-indole-2-carboxylic acid (1-isopropyl-piperidin-4-yl)-amide], the Ki was 113 nM.

For the molecule `CC(C)N1CCC(NC(=O)c2cc3cc(C(=O)OCC4COC(=O)O4)ccc3n2Cc2cc(-c3ccc(Cl)s3)on2)CC1` (stereo not drawn) [Example 3, 1-[5-(5-Chloro-thiophen-2-yl)-isoxazol-3-ylmethyl]-2-(1-isopropyl-piperidin-4-ylcarbamoyl)-1H-indole-5-carboxylic acid 2-oxo-[1,3]dioxolan-4-ylmethyl ester], the Ki was 14 nM.

As to `CC(C)N1CCC(NC(=O)c2cc3cc(C(=O)N4CCCOCC4)ccc3n2CC(=O)Nc2ccc(Cl)cn2)CC1` [Example 4, 1-[(5-Chloro-pyridin-2-ylcarbamoyl)-methyl]-5-([1,4]oxazepane-4-carbonyl)-1H-indole-2-carboxylic acid (1-isopropyl-piperidin-4-yl)-amide], the Ki is 22 nM.

In the case of `COCCOC(=O)OC(C)OC(=O)c1ccc2c(c1)cc(C(=O)NC1CCN(C(C)C)CC1)n2CC(=O)Nc1ccc(Cl)cn1` (stereo not drawn) [Example 5, 1-[(5-Chloro-pyridin-2-ylcarbamoyl)-methyl]-2-(1-isopropyl-piperidin-4-ylcarbamoyl)-1H-indole-5-carboxylic acid 1-(2-methoxy-ethoxycarbonyloxy)-ethyl ester], the Ki was 9 nM.

In the case of `CC(C)N1CCC(NC(=O)c2cc3cc(C(=O)N4CCCOCC4)ccc3n2CC(=O)Nc2ccc(Cl)nc2)CC1` [Example 6, 1-[(6-Chloro-pyridin-3-ylcarbamoyl)-methyl]-5-([1,4]oxazepane-4-carbonyl)-1H-indole-2-carboxylic acid (1-isopropyl-piperidin-4-yl)-amide], the Ki was 375 nM.

`CC(C)N1CCC(NC(=O)c2cc3c(C(=O)N4CCCOCC4)cccc3n2CC(=O)Nc2ccc(Cl)cn2)CC1` [Example 7, 1-[(5-Chloro-pyridin-2-ylcarbamoyl)-methyl]-4-([1,4]oxazepane-4-carbonyl)-1H-indole-2-carboxylic acid (1-isopropyl-piperidin-4-yl)-amide]: the Ki was 3 nM.

As to `COc1cccc(Cn2c(C(=O)NC3CCN(C(C)C)CC3)cc3c(C(=O)N4CC(OC)C4)cccc32)c1` [Example 8, 4-(3-Methoxy-azetidine-1-carbonyl)-1-(3-methoxy-benzyl)-1H-indole-2-carboxylic acid (1-isopropyl-piperidin-4-yl)-amide], the Ki is 133 nM.

On to `COc1cccc(Cn2c(C(=O)NC3CCN(C(C)C)CC3)cc3c(C(=O)N4CC(O)C4)cccc32)c1` [Example 9, 4-(3-Hydroxy-azetidine-1-carbonyl)-1-(3-methoxy-benzyl)-1H-indole-2-carboxylic acid (1-isopropyl-piperidin-4-yl)-amide], for which the inhibition constant Ki was 124 nM.

`CC(C)ONC(=O)c1ccc2c(c1)cc(C(=O)NC1CCN(C(C)C)CC1)n2Cc1cc(-c2ccc(Cl)s2)on1` [Example 10, 1-[5-(5-Chloro-thiophen-2-yl)-isoxazol-3-ylmethyl]-1H-indole-2,5-dicarboxylic acid 5-(isopropoxy-amide) 2-[(1-isopropyl-piperidin-4-yl)-amide]]: the inhibition constant (Ki) was 24 nM.

As to `CC(C)N1CCC(NC(=O)c2cc3cc(C(=O)N4CC(O)C4)ccc3n2CC(=O)Nc2ccc(Cl)cn2)CC1` [Example 11, 1-[(5-Chloro-pyridin-2-ylcarbamoyl)-methyl]-5-(3-hydroxy-azetidine-1-carbonyl)-1H-indole-2-carboxylic acid (1-isopropyl-piperidin-4-yl)-amide], the Ki is 8 nM.

With `CC(C)N1CCC(NC(=O)c2cc3c(C(=O)N4CC(O)C4)cccc3n2Cc2cc(-c3ccc(Cl)s3)on2)CC1` [Example 12, 1-[5-(5-Chloro-thiophen-2-yl)-isoxazol-3-ylmethyl]-4-(3-hydroxy-azetidine-1-carbonyl)-1H-indole-2-carboxylic acid (1-isopropyl-piperidin-4-yl)-amide], the Ki is 14 nM.

Consider `COCCOC(=O)OC(C)OC(=O)c1cccc2c1cc(C(=O)NC1CCN(C(C)C)CC1)n2CC(=O)Nc1ccc(Cl)cn1` (stereo not drawn) [Example 13, 1-[(5-Chloro-pyridin-2-ylcarbamoyl)-methyl]-2-(1-isopropyl-piperidin-4-ylcarbamoyl)-1H-indole-4-carboxylic acid 1-(2-methoxy-ethoxycarbonyloxy)-ethyl ester], for which the Ki is 2 nM.

With `Cc1oc(=O)oc1COC(=O)c1cccc2c1cc(C(=O)NC1CCN(C(C)C)CC1)n2Cc1cc(-c2ccc(Cl)s2)on1` [Example 14, 1-[5-(5-Chloro-thiophen-2-yl)-isoxazol-3-ylmethyl]-2-(1-isopropyl-piperidin-4-ylcarbamoyl)-1H-indole-4-carboxylic acid 5-methyl-2-oxo-[1,3]dioxol-4-ylmethyl ester], the Ki is 1 nM.

With `Cc1oc(=O)oc1COC(=O)c1ccc2c(c1)cc(C(=O)NC1CCN(C(C)C)CC1)n2Cc1cc(-c2ccc(Cl)s2)on1` [Example 15, 1-[5-(5-Chloro-thiophen-2-yl)-isoxazol-3-ylmethyl]-2-(1-isopropyl-piperidin-4-ylcarbamoyl)-1H-indole-5-carboxylic acid 5-methyl-2-oxo-[1,3]dioxol-4-ylmethyl ester], the Ki is 11 nM.
